We go through four molecules from patent publication US10582715B2, “Powder flavour composition” (Givaudan S.A., priority 2012, dated 2020).

Each structure is given as a SMILES string.

Experiment [1] is described as follows: Tasting of snack product (fried potato base, 35% fat, cheese seasoning) with added compound. From the text:
A snack product consisting of a fried potato base, containing 35% fat and flavored with cheese seasoning containing salt, MSG, dairy, organic acids, sugars, and a flavour formulation.

Experiment [2] can be described thus: Tasting of air expanded base (3% fat, cheese seasoning) with added compound. From the text: An air expanded base (Rice, wheat, Tapioca, potato, salt, sugar, modified starch), containing 3% fat and flavored with cheese seasoning containing salt, MSG, dairy, organic acids, sugars and flavor.
A short description of experiment [3]: Test on orange flavoured Tang powdered soft drink, evaluated by expert tasters. The method, then:
In an orange flavoured Tang powdered soft drink (market product) sweetened with sucrose plus high intensity sweetener and containing citric acid, C18:2-gaba and C18:2-pro were tested.
All samples were evaluated by expert tasters. Tasters were asked to describe the samples focusing on authentic taste, mouthfeel & body, enhancement, richness, juiciness, long lastingness, salivation, sweetness, masking off notes of high intensity sweetener
Base is Orange Flavoured Tang
Base: sweet, orange, licorice, and lingering high intensity sweetener offnotes, bitter, thin

Experiment [4] can be described thus: Mango flavoured still beverage containing different levels of juice, evaluated by expert tasters. How it is done: In a Mango flavoured still beverage, sweetened with 8% sucrose and containing 0.1% citric acid and 1%, 4% and 6% clear mango juice flavoured with a proprietary Mango flavour @ 0.05% , C18:2-gaba and C18:2-Pro were added, as such (separate) and in combination.
All samples were evaluated by expert tasters. Tasters were asked to describe the samples focusing on authentic taste, juicy mouthfeel, enhancement, richness, juiciness, long lastingness, salivation, sweetness.
In a Mango flavoured still beverage, sweetened with 8% sucrose & containing 0.1% citric acid and 1% clear mango juice flavoured with proprietary Mango flavour @ 0.05%, C18:2-gaba and C18:2-Pro were added, as such (separate) and in combination.
Base is water, 8% sucrose, 0.1% citric acid, 1% clear mango juice (very low juice %), flavoured with Mango flavor, dosed at 0.05%
Base: sweet, fruity, mango, thin
In a Mango flavoured still beverage, sweetened with 8% sucrose & containing 0.1% citric acid and 4% clear mango juice flavoured with Mango flavour @ 0.05% , C18:2-gaba and C18:2-Pro were added, as such (separate) and in combination.
Base is water, 8% sucrose, 0.1% citric acid, 4% clear mango juice (30% reduced juice), flavoured with Mango flavor, dosed at 0.05%
Base: sweet, fruity, mango, some low mouthfeel
In a Mango-flavoured still beverage, sweetened with 8% sucrose & containing 0.1% citric acid and 6% clear mango juice flavoured with Mango flavour @ 0.05%, C18:2-gaba and C18:2-Pro were added, as such (separate) and in combination.
Base is water, 8% sucrose, 0.1% citric acid, 6% clear mango juice (full juice), flavoured with Mango flavor, dosed at 0.05%.
Base: Sweet, fruity mango, full mouthfeel

Experiment [5] can be described thus: Test in 3 in 1 Coffee beverage, evaluated by expert tasters. Particulars: sucrose 13.2%, creamer 2.1% fat, compound at 1 ppm, base: coffee, sweet, mild dairy. How it is done: In a 3 in 1 Coffee beverage from Nestle (market product) sweetened with sucrose 13.2% and containing creamer (2.1% fat) C18:2-gaba was added.
Samples were evaluated by expert tasters. Tasters were asked to describe the samples focusing on authentic taste, mouthfeel, fullness, salivation, sweetness, juiciness, richness, long lastingness and fattiness.
Base is 3-in-1 Coffee Beverage (Market Product) Sweetened with Sucrose and Containing Creamer with Fat
Base: coffee, sweet, mild dairy

Regarding `CCCCCCCC/C=C\CCCCCCCC(=O)N[C@@H](CCSC)C(=O)O` [C18:1 met], the tasting results was “Salty, aged cheese, succulent” in experiment [1] (compound at 0.25 ppm); “Increased cheese, creamy, salty and succulent” in experiment [1] (compound at 0.5 ppm).

For `CCCCCCCC/C=C\CCCCCCCC(=O)NC1(C(=O)O)CC1` [C18:1-ACCA, N-oleoyl 1-amino-cyclopropyl carboxylic acid], the tasting results in experiment [1] (compound at 0.5 ppm) is on record as “Increased salty”; in experiment [1] (compound at 1 ppm), “Increased Umami, salty”; in experiment [2] (compound at 0.5 ppm) it was “Increased salty”; in experiment [2] (compound at 1 ppm) it was “Increased Umami, salty”.

`CCCCC/C=C\C/C=C\CCCCCCCC(=O)N1CCC[C@H]1C(=O)O` [C18:2-Pro]: in experiment [3] (compound at 1 ppm), the “masking off notes of high intensity sweetener” value was “the off-notes of the high intensity sweetener were suppressed”. Further, the “taste description by expert tasters” value in experiment [3] (compound at 1 ppm) was “very fresh, enhances sweet juicy orange notes, characteristic of authentic fresh orange fruit”; in experiment [4] (1% clear mango juice, compound at 0.5 ppm) it was “more sweet, sugar-like, very juicy and long lasting sweet, salivating”; in experiment [4] (4% clear mango juice, compound at 0.5 ppm), “more sweet, sugar-like, very juicy and long lasting sweet, salivating”; in experiment [4] (6% clear mango juice (full juice), compound at 0.5 ppm), “more sweet, sugar-like, very juicy and long lasting sweet, salivating, syrupy”.

In the case of `CCCCC/C=C\C/C=C\CCCCCCCC(=O)NCCCC(=O)O` [C18:2-gaba], the tasting results is on record as “increased dairy, cheesy” in experiment [1] (compound at 0.5 ppm); “Fatty full, cheesy, cheese crust, long lasting” in experiment [1] (compound at 1 ppm); “Increased dairy, cheese” in experiment [2] (compound at 0.5 ppm); “Fatty full, cheesy, cheese crust, long lasting, cover base” in experiment [2] (compound at 1 ppm). The “taste description by expert tasters” value in experiment [5] is listed as “very nice mouthfeel effect, creamy as if coffee creamer is added, more sweet”; in experiment [3] (compound at 0.5 ppm), “enhances sweet juicy orange notes, enhanced mouthfeel”; in experiment [4] (1% clear mango juice, compound at 1 ppm) it was “fatty skin-like, very juicy, authentic mango, much more mouthfeel, long lasting mango taste, mouthfeel is close to the full juice product”; in experiment [4] (4% clear mango juice, compound at 1 ppm), “fatty skin-like, very juicy, authentic mango, long lasting mango taste, more mouthfeel than the full juice product”; in experiment [4] (6% clear mango juice (full juice), compound at 1 ppm), “fatty skin-like, very thick juicy, authentic mango, long lasting mango taste, rich”. In addition, the “masking off notes of high intensity sweetener” value in experiment [3] (compound at 0.5 ppm) is given as “the off-notes of the high intensity sweetener were suppressed”.
